We go through 31 compounds from patent US10501414B2, “Indole analogs as 5-oxo-ETE receptor antagonists and method of use thereof” (THE ROYAL INSTITUTION FOR THE ADVANCEMENT OF …, priority 2015, dated 2019).

This assay has as its target T1, OXE receptor (Homo sapiens, UniProt Q8TDS5).
T1 construct: Human granulocytes (≥95% neutrophils) are prepared from whole blood; endogenous in cells; host or cells: human granulocytes (≥95% neutrophils) from whole blood
The experiment in a line: Calcium mobilization in human granulocytes (inhibition of 5-oxo-ETE-induced calcium mobilization). The assay is classed as cell-based. The method, then:
Evaluation of Antagonist Activity: Calcium Mobilization in Human Granulocytes
Human granulocytes (≥95% neutrophils) are prepared from whole blood using Dextran 500 to remove red blood cells, followed by centrifugation over Ficoll-Paque to remove mononuclear cells and hypotonic lysis of any remaining red blood cells. After centrifugation the granulocytes are suspended in Ca^++/Mg^++-free phosphate-buffered saline (PBS^−). Granulocytes (10^7 cells/ml) are incubated with the acetoxymethyl ester of indo-1 (1 μM) for 30 min, followed by washing twice with PBS^− and resuspension in the same medium to obtain a final cell concentration of 3.22×10^6 cells/ml. Five minutes prior to commencing data acquisition, Ca^++ and Mg^++ are added to give final concentrations of 1.8 and 1 mM, respectively. Calcium measurements are performed at 37° C. using a spectrofluorometer equipped with a temperature-controlled cuvette holder and a magnetic stirrer. The excitation and emission wavelengths are 331 nm and 410 nm, respectively. Following stabilization of the baseline, fluorescence is measured for 1 min, prior to the addition of either vehicle or various concentrations of a potential 5-oxo-ETE antagonist. Two min later, 5-oxo-ETE (10 nM) is added, followed 1 min later by digitonin (final concentration 0.1%). Data acquisition is terminated after a further 0.5 min. Fmax is determined from fluorescence measurements after the addition of digitonin, whereas Fmin is determined after determination of autofluorescence as described in the literature. A dissociation constant of 250 nM for the indo-1/Ca^++ complex is used to calculate [Ca^++]i. The % inhibition of 5-oxo-ETE-induced calcium mobilization by the antagonist is calculated as follows: Inhibition (%)=(1−(Caant/Ca^++veh))×100 where Caant is the increase in cytosolic calcium levels induced by 5-oxo-ETE (10 nM) following the addition of a potential antagonist, whereas Caveh is the response induced by 5-oxo-ETE following addition of vehicle alone.
In general terms: Calcium flux is commonly read through the fluorescence of an indicator in the cells.

Setting [1] is: inhibition of calcium mobilization induced by 5-oxo-ETE (10 nM) in human granulocytes, bracketed figure in cell = n, read-out: IC50.
The mark [2] stands for this setting: 5-oxo-ETE-induced calcium mobilization.
The mark [3] stands for this setting: 5-oxo-ETE-induced calcium mobilization, read-out: potency (IC50) in the picomolar range.

“And” between values parts separate entries of the source, which are not always exact repeats. Equal values may be shown once. Read-outs that look alike come from different tables or passages of the source.

T1 sequence (Q8TDS5 whole entry): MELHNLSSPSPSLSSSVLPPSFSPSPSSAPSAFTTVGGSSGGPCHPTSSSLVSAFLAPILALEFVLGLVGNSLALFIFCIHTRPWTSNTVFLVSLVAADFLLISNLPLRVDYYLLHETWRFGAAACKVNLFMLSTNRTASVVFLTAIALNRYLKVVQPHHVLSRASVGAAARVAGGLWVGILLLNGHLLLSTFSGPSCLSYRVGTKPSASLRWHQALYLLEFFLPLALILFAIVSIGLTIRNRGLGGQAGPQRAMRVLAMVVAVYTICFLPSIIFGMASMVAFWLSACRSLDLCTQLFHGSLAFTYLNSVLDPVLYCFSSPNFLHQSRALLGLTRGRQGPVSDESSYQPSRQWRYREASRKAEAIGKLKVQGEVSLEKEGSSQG

For orientation: IC50 means the midpoint of a concentration-inhibition curve. For the compound `C[C@H](CC(=O)O)CC(=O)c1c(CCCCCCc2ccccc2F)n(C)c2ccc(Cl)cc12` (single isomer, unassigned) [Compound 48], the IC50 under setting [1] came out at 0.27 ± 0.06 nM. As to `CC(CC(=O)O)CC(=O)c1c(/C=C/CCCCc2ccccc2)n(C)c2ccc(Cl)cc12` (centres unmarked) [Compound 85, (E)-5-(5-chloro-1-methyl-2-(6-phenylhex-1-en-1-yl)-1H-indol-3-yl)-3-methyl-5-oxopentanoic acid], the IC50 under setting [1] came out at 1.93 ± 0.6 nM. As for `CC(CC(=O)O)CC(=O)c1c(CCCCCc2ccccc2)n(C)c2ccc(Cl)cc12` (centres unmarked) [Compound 14, 5-(5-chloro-1-methyl-2-(5-phenylpentyl)-1H-indol-3-yl)-3-methyl-5-oxopentanoic acid], the IC50 under setting [1] amounted to 11 ± 1 nM. Regarding `COc1ccccc1CCCCCCc1c(C(=O)C[C@H](C)CC(=O)O)c2cc(Cl)ccc2n1C` [Compound 49, (S)-5-(5-chloro-2-(6-(2-methoxyphenyl)hexyl)-1-methyl-1H-indol-3-yl)-3-methyl-5-oxopentanoic acid], the IC50 under setting [1] came out at 0.1 ± 0.02 nM. As to `CC(O)CCCCc1c(C(=O)CC(C)CC(=O)O)c2cc(Cl)ccc2n1C` (centres unmarked) [Met a V230 (ω-1)OH, reference compound], the IC50 under setting [1] came to 1600 ± 400 nM. In addition, under “relative to V230”, the “times less potent than compound V230 in blocking 5-oxo-ETE-induced calcium mobilization in neutrophils” value is listed as “about 100 times”.

With `C[C@H](CC(=O)O)CC(=O)c1c(CCCC/C=C/c2ccccc2)n(C)c2ccc(Cl)cc12` [Compound 97], the IC50 under setting [1] amounted to 0.071 ± 0.024 nM. With `CC(CC(=O)O)CC(=O)c1c(CCCCC=Cc2ccccc2)n(C)c2ccc(Cl)cc12` (centres unmarked) [Compound 94, 5-[5-Chloro-1-methyl-2-(6-phenyl-hex-5-enyl)-1H-indol-3-yl]-3-methyl-5-oxopentanoic acid], under setting [1], the IC50 amounted to 0.65 ± 0.36 nM.

For `C[C@@H](CC(=O)O)CC(=O)c1c(CCCCCCc2cccc(F)c2)n(C)c2ccc(Cl)cc12` (single isomer, unassigned) [Compound 66], under setting [1], the IC50 is 1.8 ± 0.3 nM. With `CCC(C)CCCc1c(C(=O)CC(C)CC(=O)O)c2cc(Cl)ccc2n1C` (centres unmarked) [Compound V225, reference compound], under setting [2], the “antagonist activity / potency in words” value is “somewhat less potent”. Further, the half-maximal inhibitory concentration (IC50) under setting [1] came to 88 ± 26 nM.

For `CC(CC(=O)O)CC(=O)c1c(CCCCCCc2ccc(Cl)cc2)n(C)c2ccc(Cl)cc12` (centres unmarked) [Compound 23, 5-(5-chloro-2-(6-(4-chlorophenyl)hexyl)-1-methyl-1H-indol-3-yl)-3-methyl-5-oxopentanoic acid], the IC50 under setting [1] turned out to be 0.63 ± 0.22 nM.

Turning to `CCCCCC(O)c1c(C(=O)CC(C)CC(=O)O)c2cc(Cl)ccc2n1C` (centres unmarked) [Compound V230M, reference compound], under setting [2], the “antagonist activity / potency in words” value is “significantly reduced IC50”. For the same compound, the IC50 under setting [1] is 3300 ± 1100 nM.

In the case of `CC(CC(=O)O)CC(=O)c1c(CCCCCCc2cccc(F)c2)n(C)c2ccc(Cl)cc12` (racemic) [Compound 21, 5-(5-chloro-2-(6-(3-fluorophenyl)hexyl)-1-methyl-1H-indol-3-yl)-3-methyl-5-oxopentanoic acid], the IC50 under setting [3] was approximately 0.072 nM and the half-inhibitory concentration (IC50) under setting [1] turned out to be 0.072 ± 0.007 nM.

Turning to `C[C@@H](CC(=O)O)CC(=O)c1c(CCCCCCc2ccc(F)cc2)n(C)c2ccc(Cl)cc12` (single isomer, unassigned) [Compound 69], the IC50 under setting [1] worked out at 4.45 ± 1.05 nM.

For `C[C@H](CC(=O)O)CC(=O)c1c(C(O)CCCCCc2ccc(F)cc2)n(C)c2ccc(Cl)cc12` (some centres unmarked) [Compound 54M], the “antagonist activity / potency in words” value under setting [2] is “antagonists and 5-oxo-ETE-induced calcium mobilization inhibitors”. Under setting [1], the IC50 is 1.4 ± 0.4 nM. On to `C[C@H](CC(=O)O)CC(=O)c1c(CCCC/C=C\c2ccccc2)n(C)c2ccc(Cl)cc12` [Compound 95], for which, under setting [1], the half-inhibitory concentration (IC50) worked out at 0.62 ± 0.29 nM. On the same count and under the same terms, next, `CC(CC(=O)O)CC(=O)c1c(CCCCCCc2ccc(F)cc2)n(C)c2ccc(Cl)cc12` (centres unmarked) [Compound 24, 5-(5-chloro-2-(6-(4-fluorophenyl)hexyl)-1-methyl-1H-indol-3-yl)-3-methyl-5-oxopentanoic acid]: 0.8 ± 0.24 nM.

As to `C[C@H](CC(=O)O)CC(=O)c1c(CCCCCCc2ccccc2Cl)n(C)c2ccc(Cl)cc12` [Compound 47, (S)-5-(5-chloro-2-(6-(2-chlorophenyl)hexyl)-1-methyl-1H-indol-3-yl)-3-methyl-5-oxopentanoic acid], under setting [1], the IC50 turned out to be 0.55 ± 0.19 nM. As to `C[C@H](CC(=O)O)CC(=O)c1c(CCCCCCc2cccc(F)c2)n(C)c2ccc(Cl)cc12` (single isomer, unassigned) [Compound 51], under setting [1], the IC50 was 0.037 ± 0.005 nM. On to `COc1ccccc1CCCCCCc1c(C(=O)C[C@@H](C)CC(=O)O)c2cc(Cl)ccc2n1C` (single isomer, unassigned) [Compound 64], for which, under setting [1], the IC50 stood at 54 ± 23 nM. Take `COc1cccc(CCCCCCc2c(C(=O)C[C@@H](C)CC(=O)O)c3cc(Cl)ccc3n2C)c1` (single isomer, unassigned) [Compound 67]: the IC50 under setting [1] is 50 ± 13 nM. For `COc1cccc(CCCCCCc2c(C(=O)CC(C)CC(=O)O)c3cc(Cl)ccc3n2C)c1` (racemic) [Compound 22, 5-(5-chloro-2-(6-(3-methoxyphenyl)hexyl)-1-methyl-1H-indol-3-yl)-3-methyl-5-oxopentanoic acid], the IC50 runs as follows: under setting [3], approximately 0.086 nM; under setting [1], 0.086 ± 0.017 nM. `C[C@@H](CC(=O)O)CC(=O)c1c(CCCCCCc2cccc(Cl)c2)n(C)c2ccc(Cl)cc12` (single isomer, unassigned) [Compound 65]: under setting [1], the IC50 is 0.64 ± 0.1 nM. On the same count and under the same terms, next, `C[C@@H](CC(=O)O)CC(=O)c1c(CCCC/C=C/c2ccccc2)n(C)c2ccc(Cl)cc12` [Compound 98]: 1.1 ± 0.19 nM; `COc1cccc(CCCCCCc2c(C(=O)C[C@H](C)CC(=O)O)c3cc(Cl)ccc3n2C)c1` (single isomer, unassigned) [Compound 52]: 0.051 ± 0.007 nM. The same measure, in the same setting: next, `C[C@@H](CC(=O)O)CC(=O)c1c(CCCCCCc2ccccc2F)n(C)c2ccc(Cl)cc12` (single isomer, unassigned) [Compound 63]: 2.9 ± 0.1 nM. With `CC(CC(=O)O)CC(=O)c1c(COCCCc2ccccc2)n(C)c2ccc(Cl)cc12` (centres unmarked) [Compound 83, 5-(5-chloro-1-methyl-2-((3-phenylpropoxy)methyl)-1H-indol-3-yl)-3-methyl-5-oxopentanoic acid], the IC50 under setting [1] is 0.7 nM. On the same count and under the same terms, next, `C[C@H](CC(=O)O)CC(=O)c1c(C(O)CCCCCc2cccc(Cl)c2)n(C)c2ccc(Cl)cc12` (some centres unmarked) [Compound 50M]: 0.08 ± 0.02 nM.

With `COc1ccccc1CCCCCC(O)c1c(C(=O)C[C@H](C)CC(=O)O)c2cc(Cl)ccc2n1C` (some centres unmarked) [Compound 49M], under setting [2], the “antagonist activity / potency in words” value was “antagonists and 5-oxo-ETE-induced calcium mobilization inhibitors”. In addition, under setting [1], the half-maximal inhibitory concentration (IC50) was 0.58 ± 0.21 nM. Consider `CC(CC(=O)O)CC(=O)c1c(CCCCCCc2ccccc2F)n(C)c2ccc(Cl)cc12` (centres unmarked) [Compound 18, 5-(5-chloro-2-(6-(2-fluorophenyl)hexyl)-1-methyl-1H-indol-3-yl)-3-methyl-5-oxopentanoic acid], for which, under setting [1], the IC50 came out at 0.41 ± 0.07 nM. On the same count and under the same terms, the result for `COc1ccc(CCCCCCc2c(C(=O)CC(C)CC(=O)O)c3cc(Cl)ccc3n2C)cc1` (centres unmarked) [Compound 25, 5-(5-chloro-2-(6-(4-methoxyphenyl)hexyl)-1-methyl-1H-indol-3-yl)-3-methyl-5-oxopentanoic acid] reads 0.63 ± 0.08 nM. For `CC(CC(=O)O)CC(=O)c1c(CCCCc2ccccc2)n(C)c2ccc(Cl)cc12` (racemic) [Compound 13, methyl 5-(5-chloro-1-methyl-2-(4-phenylbutyl)-1H-indol-3-yl)-3-methyl-5-oxopentanoic acid], under setting [1], the IC50 stood at 38 ± 8 nM.
